Where “and” joins values, the source holds several entries; their conditions need not be identical. Equal entries are not always repeated.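 Values below derive from 48-hour exposures of cells grown in 96-well plates, with endpoints linearly interpolated between the two concentrations bracketing the appropriate inhibition level. The concentration for 50% growth inhibition is given as GI50. TGI: concentration producing complete growth inhibition.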
What was measured:
Assay in all cases: NCI tumour cell line growth inhibition, 48 h
[1] = test system: M19-MEL melanoma
[2] = test system: MOLT-4 leukemia
[3] = test system: NCI-H226 lung
[4] = test system: SNB-78 CNS
[5] = test system: SW-620 colon
[6] = test system: U251 CNS
[7] = test system: UACC-62 melanoma
[8] = test system: LOX IMVI melanoma
[9] = test system: BT-549 breast
[10] = test system: MDA-MB-435

| SMILES | TGI [1] | TGI [2] | TGI [3] | TGI [4] | TGI [5] | TGI [6] | TGI [7] | TGI [8] | GI50 [9] | TGI [9] | GI50 [8] | GI50 [10] | TGI [10] | GI50 [2] | GI50 [3] | GI50 [5] | GI50 [6] | GI50 [7] |
| --- | --- | --- | --- | --- | --- | --- | --- | --- | --- | --- | --- | --- | --- | --- | --- | --- | --- | --- |
| O=C(NC1CCC[C@H]1OC(=O)c1ccccc1)c1ccccc1 (some centres not stated) | > 100 µM | > 100 µM | 96.1 µM | > 100 µM | > 100 µM | > 100 µM | > 100 µM | – | – | – | – | – | – | – | – | – | – | – |
| CC(C)N1CC2CC(CN(C(=O)c3ccc(Cl)cc3)C2)C1 | > 100 µM | > 100 µM | > 100 µM | – | > 100 µM | > 100 µM | > 100 µM | > 100 µM | – | – | – | – | – | – | – | – | – | – |
| COc1ccc(C(C2=C(O)CC(C)OC2=O)C2=C(O)CC(C)OC2=O)cc1 (configuration not stated) | > 100 µM | > 100 µM | > 100 µM | > 100 µM | > 100 µM | > 100 µM | > 100 µM | > 100 µM | – | – | – | – | – | – | – | – | – | – |
| CCC(O)CCCCCCCCCCCCCCC(=O)O (configuration not stated) | > 100 µM | > 100 µM | > 100 µM | > 100 µM | > 100 µM | > 100 µM | > 100 µM | – | – | – | – | – | – | – | – | – | – | – |
| C=CCC1(CN(C)C)CC/C(=C\c2ccc3c(c2)OCO3)C1=O (configuration not stated) | > 100 µM | 72.8 µM | > 100 µM | > 100 µM | > 100 µM | > 100 µM | > 100 µM | > 100 µM | – | – | – | – | – | – | – | – | – | – |
| O=C(CC12C3C4C1C1C2C3C41CC(=O)NO)NO (configuration not stated) | – | > 100 µM | 94.3 µM | > 100 µM | > 100 µM | > 100 µM | > 100 µM | 74.5 µM | – | – | – | – | – | – | – | – | – | – |
| NC1CC(=O)c2c(-c3cccs3)sc(-c3cccs3)c21 (configuration not stated) | – | > 100 µM | 48.3 µM | – | 58 µM | 34 µM | > 100 µM | 29 µM | 19.5 µM | 63.8 µM | 12.7 µM | 38.8 µM | > 100 µM | 18.5 µM | 21.6 µM | 9.11 µM | 16.7 µM | 55.9 µM |
| CN1CCN(Cc2ccc(NC(=O)c3cncc(C#Cc4ccc(N)nc4)c3)cc2C(F)(F)F)CC1 | – | 6.82 µM | 2.75 µM | – | 3.37 µM | 6.6 µM | 3.48 µM | 1.28 µM | 1.62 µM | 6.43 µM | 0.556 µM | 1.09 µM | 5.68 µM | 1.03 µM | 0.358 µM | 0.893 µM | 0.924 µM | 0.945 µM |
| Cc1cc(OCc2ccc(C(F)(F)F)cc2)c2c(c1)C(=O)C=C(NCCN1CCCC1)C2=O | – | 10.1 µM | 35.2 µM | – | 3.48 µM | 3.45 µM | 3.51 µM | 3.55 µM | 2.05 µM | 5.36 µM | 1.92 µM | 1.62 µM | 3.02 µM | 3.03 µM | 14.6 µM | 1.78 µM | 1.72 µM | 1.82 µM |
| CC1(c2ccc(F)cc2)C2C(=O)NC(=O)C1C(=O)NC2=O (configuration not stated) | > 100 µM | > 100 µM | > 100 µM | > 100 µM | > 100 µM | – | > 100 µM | > 100 µM | – | – | – | – | – | – | – | – | – | – |
| CSc1ccc(N2C(=O)C3c4[nH]c5ccccc5c4C4CCC(C(C)(C)C)CC4C3C2=O)cc1 (configuration not stated) | > 100 µM | 31.7 µM | 42.9 µM | 31.1 µM | > 100 µM | 31.5 µM | 28.9 µM | 31.8 µM | – | – | – | – | – | – | – | – | – | – |
| Nc1nc(N)c2c(ccc3c2ccn3Cc2cccc([N+](=O)[O-])c2)n1 | – | 2.49 µM | 2.42 µM | – | 1.73 µM and 1.64 µM | 1.72 µM | 1.39 µM | 1.47 µM | 1.25 µM | 3.05 µM | 0.00831 µM | 0.0217 µM | 2.4 µM and 2.59 µM | 0.0704 µM and 0.0621 µM | 0.272 µM | 0.00556 µM | 0.018 µM | 0.0306 µM |
| CCO/C=C\C12CCCC1NC(c1ccccc1)(c1ccccc1)O2 (configuration not stated) | 64.5 µM | 46 µM | > 100 µM | > 100 µM | > 100 µM | > 100 µM | 53.4 µM | – | – | – | – | – | – | – | – | – | – | – |
| O=C(Nc1cccc([N+](=O)[O-])c1)c1cccc(C(=O)Nc2cccc([N+](=O)[O-])c2)c1 | – | > 100 µM | > 100 µM | – | > 100 µM | > 68.2 µM | > 100 µM | > 100 µM | 9.05 µM | > 100 µM | > 100 µM | > 100 µM | > 100 µM | > 100 µM | > 100 µM | > 100 µM | 7.15 µM | > 100 µM |
| O=C(Nc1nc2c(C(F)(F)F)cccc2s1)c1cc(Cl)ccc1O | – | 1.21 µM | 1.31 µM | – | 16.3 µM | 42.6 µM | 0.957 µM | 10.8 µM | 0.305 µM | 1.79 µM | 0.32 µM | 0.323 µM | > 100 µM | 0.318 µM | 0.269 µM | 0.364 µM | 0.312 µM | 0.252 µM |
| CC(NNC(=S)N1CCN(c2ccccn2)CC1)c1nccc2ccccc12 (configuration not stated) | – | 10.3 µM | 8.11 µM | – | 20.1 µM | 14.3 µM | 2.35 µM | 11.2 µM | – | 22.6 µM | – | – | 17 µM | – | – | – | – | – |
| O=C(Nc1ccc(Br)cc1)C(=O)C(C(=O)c1ccc(Cl)c(Cl)c1)C1OC(=O)c2ccccc21 (configuration not stated) | 31.1 µM | > 100 µM | 20.6 µM | > 100 µM | 38.4 µM | 22.8 µM | 26.4 µM | 47 µM | – | – | – | – | – | – | – | – | – | – |
| O=C1c2ccccc2C(=O)N1CC#CCO | > 100 µM | > 100 µM | > 100 µM | > 100 µM | > 100 µM | > 100 µM | > 100 µM | – | – | – | – | – | – | – | – | – | – | – |
| Cc1c(C(=O)Nc2ccc(N3C[C@@H](C)O[C@@H](C)C3)nc2)cccc1-c1ccc(OC(F)(F)F)cc1 | – | > 100 µM | 31.9 µM and 40.8 µM | – | > 88.4 µM and 93.3 µM | 28 µM and 38.4 µM | 27.6 µM and 35.7 µM | 31.9 µM and 67.5 µM | 10.4 µM and 15.1 µM | 40.7 µM and 43.9 µM | 7.11 µM and 7.68 µM | 7.29 µM and 5.89 µM | 49.2 µM and 38 µM | 7.59 µM and 8.47 µM | 8.11 µM and 13.8 µM | 10.6 µM and 13.9 µM | 8.6 µM and 12 µM | 9.08 µM and 12.7 µM |
| CCN1CCN(C(=O)[C@]23CC[C@@H](C)[C@H](C)[C@@H]2C2=CC[C@@H]4[C@@]5(C)CCC(=O)C(C)(C)[C@@H]5CC[C@@]4(C)[C@]2(C)CC3)CC1 | – | 1.99 µM | 7.01 µM | – | 1.76 µM | 1.85 µM | 1.61 µM | 1.52 µM | 0.833 µM | 1.58 µM | 0.821 µM | 1.05 µM | 2.3 µM | 0.809 µM | 1.78 µM | 0.902 µM | 0.854 µM | 0.835 µM |

Reference: PubChem BioAssay (NCI)
